# Assay results published in paper PMC10970558 (International Journal of Molecular Sciences, 2024).
# Where “and” joins values, the source holds several entries; their conditions need not be identical. Equal entries are not always repeated. Where two headings read alike, the source gives them in different places.
# Experiments:
# [1] = Neutral red (NR) cytotoxicity assay; assay type: cell-based, human; details: human, HaCaT immortalized keratinocytes, 50 µM, 24 h, NR assay
# Method: (§1) After 24 h exposure to drugs, assay was performed as described.
# BJ normal fibroblasts [2] = assay: Neutral red (NR) cytotoxicity assay; assay type: cell-based, human; details: for IC50: 24 h treatment, AAT Bioquest IC50 calculator
# Method: as §1
# [3] = system: HaCaT immortalized keratinocytes; assay: Neutral red (NR) cytotoxicity assay; assay type: cell-based, human; details: for IC50: 24 h treatment, NR assay, AAT Bioquest IC50 calculator
# Method: as §1
# BJ normal fibroblasts [4] = assay: Caspase 3/7 activity (apoptosis); assay type: cell-based, human; details: 24 h
# Method: (§2) As an apoptosis marker, Caspase 3/7 activity was measured with Apo-ONE® Homogenous Caspase-3/7 Assay (Promega). The fluorescence as determinant of caspase-3/7 activity was read at 485/535 nm using Tecan Infinite M200 PRO Multimode Microplate Reader (TECAN Group Ltd., Männedorf, Switzerland) and results were adjusted relatively to the number of cells per well (the number of cells was determined by fluorescence measurement after DAPI staining).
# [5] = system: HaCaT immortalized keratinocytes; assay: Caspase 3/7 activity (apoptosis); assay type: cell-based, human; details: 24 h
# Method: as §2
# BJ normal fibroblasts [6] = assay: Intracellular ATP level (CellTiter-Glo); assay type: cell-based, human; details: 24 h
# Method: (§3) Intracellular level of ATP was estimated with commercially available bioluminescent CellTiter-Glo® Assay kit from Promega, which was prepared according to manufacturer’s protocol and added to cells (100 μL/well). After 10 min incubation at RT the luminescence was measured using the Infinite M200 PRO Multimode Microplate Reader (TECAN Group Ltd., Männedorf, Switzerland) against blank (wells with the CellTiter-Glo® reagent only). The luminescence signal was proportional to ATP level. At the same time a parallel assay was performed, and cells were labeled with […] DAPI (as described above in proliferation assay). Using calibration curve, the DAPI fluorescence signal was used to estimate the number of cells in each well and to calculate luminescence signal intensity from ATP per one cell. The results were expressed as % of the control (non-treated cells).
# [7] = system: HaCaT immortalized keratinocytes; assay: Intracellular ATP level (CellTiter-Glo); assay type: cell-based, human; details: 24 h
# Method: as §3
# BJ normal fibroblasts [8] = assay: Migration (scratch) assay; assay type: cell-based, human; details: 12 h
# Method: (§4) Cells were seeded in 24-well plates at 1.5 × 10^5 cells/well in 600 µL culture medium and incubated at 37 °C for 24 h to obtain full confluence. Afterwards, cells were scraped with a sterile 200 µL pipette tips and debris was removed. […] Medium with lowered 2% FBS was used to inhibit cell division. […] Assay was performed as described. The results were expressed as % of scraped area closure estimated as ratio of area measured before and after treatment with drugs.
# [9] = system: HaCaT immortalized keratinocytes; assay: Migration (scratch) assay; assay type: cell-based, human
# Method: as §4
# [10] = In vivo toxicity, C. elegans survival; details: N2, Caenorhabditis elegans, in vivo, other: exposure in complete S medium in 96-well plate, 7 days incubation, read-out: viability (living individuals)
# Method: (§5) Nematodes wild-type culture (strain N2) was maintained at 20 °C on NGM agar plates with bacteria Escherichia coli OP50 as food source. C. elegans culture was synchronized by treatment with hypochlorite. Obtained eggs were left in M9 buffer at room temperature to hatch until the following day. The next day L1 worms were placed on NGM plates with E. coli OP50 and left at 20 °C until reaching L4 stage (approximately 44 h). L4 worms were transferred to 15 mL falcons by washing NGM plates twice with 5 mL water and centrifuged at 1500 rpm for 3–4 min. Then supernatant was aspirated. Pellet was re-suspended with 5 mL of complete S medium followed by centrifugation. Subsequently the density of nematodes suspension was assessed according to Scanlan et al.. Worms were suspended in complete S medium with E. coli OP50 (1:1000), 0.08% cholesterol (5 mg/mL in Et-OH), 1% penicillin-streptomycin, 1% nystatin, and 100 mM FUdR (at final concentration 200 µM) to obtain 20 nematodes in 50 μL. FUdR was added to sterilize nematodes. After that worms were transferred to 96-well plate. The working solutions of tested drugs were prepared in the complete S medium with 0.1% DMSO and placed into a 96-well plate with previously seeded worms. Then, worms were incubated at 21 °C for 7 days. Live (moving and curling) and dead nematodes were counted every day with an inverted microscope with contrast phase (Delta Optical IB-100). Images of treated C. elegans were also collected. The assay was performed in triplicates in three independent experiments.
# (§6) To analyze differences in nematode viability incubated with the respective concentrations of the compounds, the Kaplan–Meier estimator was used. Statistically significant differences between the control and treated groups were determined with Gehan’s Wilcoxon test. Statistically significant differences in body size between the control and treated groups were determined using a Kruskal–Wallis. p < 0.05 was considered statistically significant. All analyses and calculations were performed using Statistica 13.3 software (StatSoft, Cracow, Poland).
# C. elegans [11] = assay: In vivo toxicity, C. elegans survival; details: for concentration at which toxic: 7 days incubation, tested 25–400 µM; for effect on the entire nematode organism: up to 100 µM, up to 4th day of incubation
# Method: as §5, §6
# C. elegans [12] = assay: In vivo toxicity, C. elegans body length; parameters: species or system Caenorhabditis elegans
# Method: as §5, §6
# glioma stem cells GSC = system: glioma stem cells GSC; parameters: method as in PMID 18509487; details: mouse model of malignant glioma; cited from earlier work
# A172 glioma cells = system: A172 glioma cells; parameters: method as in PMID 37574500; details: A172, 24 h incubation; cited from earlier work
# U87 glioma = system: U87 glioma; parameters: method as in PMID 33941107; details: cited from earlier work
# BJ normal fibroblasts [13] = assay: Proliferation assay (DAPI, 72 h); assay type: cell-based, human
# Method: Cells were seeded into 96-well, clear microplates at density 4 × 10^3 cells/well and incubated 24 h at 37 °C to attach. […] DMSO concentration was adjusted to 0.1% in all samples. The plates were placed for 72 h in incubator. Then, cells were washed with PBS and fixed in 3.7% formaldehyde solution in PBS for 15 min at RT, again washed with PBS and nuclei were staining with 600 nM DAPI solution in PBS (100 µL/well, 1 h). The fluorescent signal, proportional to the number of cells, was measured in Tecan Infinite M200 PRO Mulitmode Microplate Reader (TECAN Group Ltd., Männedorf, Switzerland) at 360 nm/460 nm. The results were expressed as % of the 0.1% DMSO treated control.
# PPARγ in BJ cells = assay: PPARγ level, Western blot; assay type: cell-based, human; details: non-toxic concentration (12.5 µM), 24 h
# PPARγ = target: PPARγ; parameters: method as in PMID 11684010; details: cited from earlier work
structure (smiles),measurement,setting,value
"Cc1ccc(-c2cc(C(F)(F)F)nn2-c2ccc(S(N)(=O)=O)cc2)cc1 [CXB, celecoxib]","viability at 24 h, 50 µM",[1],~65%
same,IC50,"BJ normal fibroblasts [2]; Homo sapiens, Fibroblast",77.6 µM
same,IC50,"[3]; Homo sapiens, read-out: IC50",59.5 µM
same,concentration from which caspase 3/7 activity increased / apoptosis induced,BJ normal fibroblasts [4],≥ 50 µM
same,concentration from which caspase 3/7 activity increased / apoptosis induced,[5],≥ 50 µM
same,concentration at which intracellular ATP level increased,BJ normal fibroblasts [6],25 µM
same,concentration at which intracellular ATP level increased,[7],25 µM and 50 µM
same,concentration from which migration was reduced,BJ normal fibroblasts [8],≥ 50 µM
same,concentration from which migration was reduced,[9]; 24 h,≥ 50 µM
same,"viability at 7 days, 200 µM",[10]; 200 µM,60%
same,"viability at 7 days, 400 µM",[10]; 400 µM,73%
same,concentration at which lifespan was significantly shortened,C. elegans [11]; 7-day treatment,25 to 400 µM
same,concentration at which toxic,C. elegans [11],25 µM
same,effect on the entire nematode organism,C. elegans [11],no significant effect
same,reduction of body length,"C. elegans [12]; 200 µM, 7 days",25%
same,concentration at which body length was significantly shortened,C. elegans [12]; 7-day treatment,50 to 400 µM
same,body length versus control group,"C. elegans [12]; 50 and 400 µM, 7 days",more than twice as short
same,IC50,glioma stem cells GSC,60 µM
same,concentration from which cells were significantly destroyed via apoptosis,A172 glioma cells,≥ 25 µM
CC1(COc2ccc(CC3SC(=O)NC3=O)cc2)CCCCC1 (centres unmarked) [Ciglitazone],"concentration inhibiting growth of U87 glioma tumors, colony formation and migration",U87 glioma,20 µM
"CC(C)C[C@H](NC(=O)OCC1c2ccccc2-c2ccccc21)C(=O)O [FL, Fmoc-L-Leucine]",viability,"BJ normal fibroblasts [2]; 100 µM, 24 h",about 70%
same,IC50,BJ normal fibroblasts [2],400 µM
same,IC50,[3],≫
same,sensitivity of cells,[3]; up to the highest (100 µM) concentration,not sensitive
same,concentration at which cell division was inhibited,BJ normal fibroblasts [13],100 µM
same,concentration from which caspase 3/7 activity increased / apoptosis induced,BJ normal fibroblasts [4],≥ 50 µM
same,change of caspase 3/7 activity level,[5],reduced
same,concentration at which intracellular ATP level decreased,BJ normal fibroblasts [6],100 µM
same,concentration at which intracellular ATP level increased,[7],100 µM
same,concentration from which migration was reduced,BJ normal fibroblasts [8],≥ 50 µM
same,effect on migration,[9]; entire range of concentrations used (25–100 µM),did not affect
same,increase of PPARγ level,PPARγ in BJ cells,55% and 50%
same,concentration at which toxic,C. elegans [11],400 µM
same,effect on the entire nematode organism,C. elegans [11],no significant effect
same,change in nematode body length,C. elegans [12]; 7 days,did not significantly affect
same,Ki,PPARγ,15 µM
COC(=O)Nc1nc2ccc(C(=O)c3ccccc3)cc2[nH]1 [mebendazole],IC50,"C. elegans [11]; Caenorhabditis elegans, data from our studies",4 µM
Cc1c(C)c2c(c(C)c1O)CCC(C)(COc1ccc(CC3SC(=O)NC3=O)cc1)O2 (centres unmarked) [troglitazone],"concentration inhibiting growth of U87 glioma tumors, colony formation and migration",U87 glioma,20 µM
